Reference: article PMC11202169, “A Novel Fluorescence-Based Microplate Assay for High-Throughput Screening of hSULT1As Inhibitors” (Biosensors, 2024)
Several values for one entry are separate records, joined by “and”; a condition that tells them apart may be missing. Equal values may be shown once.

How the values were obtained:
Type in all cases: biochemical
hSULT1A2 = biological target: T1, hSULT1A2 (Homo sapiens, UniProt P50226); experiment: Fluorescence-based microplate inhibition assay, hSULT1A2-catalyzed HN-241 4-O-sulfation; conditions: for Residue activity (%) hSULT1A2 / remaining activity at 10 µM: test compound 10 μM, HN-241 5 μM, 15 min; for remaining activity at 10 µM: 0.25 h, read-out: Residue activity (%) hSULT1A2
T1 construct: 6-histidine tag (N); TEV site (N); made in house; host or cells: Escherichia coli BL21 (DE3), pET29a(+)
T1 sequence (P50226 whole entry): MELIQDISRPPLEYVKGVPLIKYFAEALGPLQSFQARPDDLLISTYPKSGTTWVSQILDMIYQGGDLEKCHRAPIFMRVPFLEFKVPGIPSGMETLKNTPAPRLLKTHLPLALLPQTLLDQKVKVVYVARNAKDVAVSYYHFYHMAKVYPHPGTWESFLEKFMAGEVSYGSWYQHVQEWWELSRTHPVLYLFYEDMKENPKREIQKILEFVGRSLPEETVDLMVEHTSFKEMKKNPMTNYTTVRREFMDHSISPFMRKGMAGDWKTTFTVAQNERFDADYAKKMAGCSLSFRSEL

hSULT1A3 = biological target: T2, hSULT1A3 (Homo sapiens, UniProt P0DMM9); experiment: Fluorescence-based microplate inhibition assay, hSULT1A3-catalyzed HN-241 4-O-sulfation; conditions: test compound 10 μM, HN-241 10 μM, 15 min; for activity at 10 µM: read-out: Residue activity (%) hSULT1A3
T2 construct: 6-histidine tag (N); TEV site (N); made in house; host or cells: Escherichia coli BL21 (DE3), pET29a(+)
T2 sequence (P0DMM9 whole entry): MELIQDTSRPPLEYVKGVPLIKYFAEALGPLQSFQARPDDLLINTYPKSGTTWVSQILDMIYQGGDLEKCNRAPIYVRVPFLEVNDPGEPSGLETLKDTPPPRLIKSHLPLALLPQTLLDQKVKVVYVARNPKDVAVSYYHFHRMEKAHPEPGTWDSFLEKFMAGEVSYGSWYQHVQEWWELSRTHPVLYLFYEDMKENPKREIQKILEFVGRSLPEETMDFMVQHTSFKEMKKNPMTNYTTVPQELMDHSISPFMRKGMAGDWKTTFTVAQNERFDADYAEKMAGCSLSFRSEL

hSULT1A1 = biological target: T3, hSULT1A1 (Homo sapiens, UniProt P50225); experiment: Fluorescence-based microplate inhibition assay, hSULT1A1-catalyzed HN-241 4-O-sulfation; conditions: test compound 1 μM, HN-241 1 μM, 15 min; for activity at 1 µM: read-out: Residue activity (%) hSULT1A1;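 on all read-outs here: reaction started with 200 µM PAPS at 37 °C, fluorescence read continuously (Ex 350 nm, Em 450 nm), activity expressed relative to DMSO-only control without inhibitor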
T3 construct: 6-histidine tag (N); TEV site (N); made in house; host or cells: Escherichia coli BL21 (DE3), pET29a(+)
T3 sequence (P50225 whole entry): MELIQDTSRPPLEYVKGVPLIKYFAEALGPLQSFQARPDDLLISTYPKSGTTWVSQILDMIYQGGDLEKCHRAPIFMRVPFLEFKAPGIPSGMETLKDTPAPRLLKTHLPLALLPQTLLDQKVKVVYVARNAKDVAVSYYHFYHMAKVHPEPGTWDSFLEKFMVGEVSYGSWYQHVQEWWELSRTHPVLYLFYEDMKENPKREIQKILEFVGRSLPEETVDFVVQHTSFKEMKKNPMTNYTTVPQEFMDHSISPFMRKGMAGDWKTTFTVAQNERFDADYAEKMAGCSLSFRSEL

Molecule	Residue activity (%) hSULT1A2 (hSULT1A2)	Residue activity (%) hSULT1A3 (hSULT1A3)	Residue activity (%) hSULT1A1 (hSULT1A1)	remaining activity at 10 µM (hSULT1A2) [%]	activity at 10 µM (hSULT1A3) [%]	activity at 1 µM (hSULT1A1) [%]	IC50 (hSULT1A2; hSULT1A2-catalyzed HN-241 4-O-sulfation) [nM]
COc1cc(OC)c(CCC(=O)c2ccc(O)cc2)c(OC)c1 [Loureirin B]	6.16%	71.91%	5.84%	–	–	–	–
CC(C)=CCC[C@@](C)(O)[C@H]1CC[C@]2(C)[C@@H]1[C@H](O)C[C@@H]1[C@@]3(C)CC[C@H](O)C(C)(C)[C@@H]3CC[C@]12C [(20R)-Protopanaxdiol]	97.81% and 101.25%	110.20% and 105.48%	99.25% and 99.62%	–	–	–	–
COc1ccc(-c2coc3cc(O[C@@H]4O[C@H](CO)[C@@H](O)[C@H](O)[C@H]4O)ccc3c2=O)cc1O [Calycosin-7-O-β-D-glucoside]	22.81%	54.16%	2.77%	–	–	–	–
CC(C)=CC/C=C(/C)[C@H]1CC[C@]2(C)[C@@H]1[C@H](O)C[C@@H]1[C@@]3(C)CC[C@H](O)C(C)(C)[C@@H]3[C@@H](O[C@@H]3O[C@H](CO)[C@@H](O)[C@H](O)[C@H]3O[C@@H]3O[C@@H](C)[C@H](O)[C@@H](O)[C@H]3O)C[C@]12C [Ginsenoside F4]	89.89%	99.83%	99.89%	–	–	–	–
COc1cc(-c2oc3cc(O)cc(O)c3c(=O)c2O[C@@H]2O[C@H](CO[C@@H]3O[C@@H](C)[C@H](O)[C@@H](O)[C@H]3O)[C@@H](O)[C@H](O)[C@H]2O)ccc1O [Narcissoside]	86.78%	60.08%	99.20%	–	–	–	–
O=C(O[C@@H]1[C@@H](O)[C@H](Oc2cc(O)c(C(=O)CCc3ccccc3)c(O)c2)O[C@@H]2COC(=O)c3cc(O)c(O)c(O)c3-c3c(cc(O)c(O)c3O)C(=O)O[C@@H]12)c1cc(O)c(O)c(O)c1 [Thonningianin A]	–	–	–	3.29	17.6	12	–
O=c1c(O)c(-c2ccc(O)cc2O)oc2cc(O)cc(O)c12 [Morin]	–	–	–	4.73	55.7	50.7	–
C[C@H](CCC(=O)O)[C@H]1CC[C@H]2[C@@H]3[C@H](O)C[C@@H]4C[C@H](O)CC[C@]4(C)[C@H]3CC[C@]12C [Chenodeoxycholic acid]	–	–	–	98.2	129	96.5	–
COc1cc2c(=O)c(-c3ccc(O)cc3)coc2cc1O[C@@H]1O[C@H](CO)[C@@H](O)[C@H](O)[C@H]1O [Glycitin]	97.40%	114.83%	98.37%	–	–	–	–
COc1c(O)cc2occ(-c3ccc(O)cc3)c(=O)c2c1O [Tectorigenin]	–	–	–	4.26	86.8	4.17	–
COc1c(O)cc2c(c1O)C(=O)c1c(cc(C)c(O)c1OC)C2=O [Aurantio-obtusin]	–	–	–	0	45.2	0.45	492 ± 15.2
O=C1C=CC(=O)c2cc3ccccc3cc21 [1,4-Anthracenedione]	1.06%	94.23%	29.15%	–	–	–	–
Ginkgolic acid	13.44%	66.66%	12.05%	–	–	–	–
COc1c2occc2cc2ccc(=O)oc12 [8-Methoxypsoralen]	–	–	–	110	119	107	–
